The values below come from paper PMC12621189, “Optimization of Selective and CNS Penetrant Alkyne-Based TREK Inhibitors: The Discovery and Characterization of ONO-9517601 (VU6022856) and ONO-7927846 (VU6024391)” (Journal of Medicinal Chemistry, 2025).

The target of test [1] is TASK-1 (Homo sapiens, UniProt O14649). The test can be described thus: K2P family selectivity, TASK-1. In kind it is cell-based.
The target in test [2] is TASK-2 (Homo sapiens, UniProt O95279). Description: K2P family selectivity, TASK-2. The class given is cell-based.
Test [3] addresses THIK-1 (Homo sapiens, UniProt Q9HB14). Description: K2P family selectivity, THIK-1. The class given is cell-based.
The target in test [4] is DAT (Homo sapiens, UniProt Q01959). The test can be described thus: Functional assay, DAT. The class given is biochemical.
Chain of DAT (Q01959 whole entry, species assumed): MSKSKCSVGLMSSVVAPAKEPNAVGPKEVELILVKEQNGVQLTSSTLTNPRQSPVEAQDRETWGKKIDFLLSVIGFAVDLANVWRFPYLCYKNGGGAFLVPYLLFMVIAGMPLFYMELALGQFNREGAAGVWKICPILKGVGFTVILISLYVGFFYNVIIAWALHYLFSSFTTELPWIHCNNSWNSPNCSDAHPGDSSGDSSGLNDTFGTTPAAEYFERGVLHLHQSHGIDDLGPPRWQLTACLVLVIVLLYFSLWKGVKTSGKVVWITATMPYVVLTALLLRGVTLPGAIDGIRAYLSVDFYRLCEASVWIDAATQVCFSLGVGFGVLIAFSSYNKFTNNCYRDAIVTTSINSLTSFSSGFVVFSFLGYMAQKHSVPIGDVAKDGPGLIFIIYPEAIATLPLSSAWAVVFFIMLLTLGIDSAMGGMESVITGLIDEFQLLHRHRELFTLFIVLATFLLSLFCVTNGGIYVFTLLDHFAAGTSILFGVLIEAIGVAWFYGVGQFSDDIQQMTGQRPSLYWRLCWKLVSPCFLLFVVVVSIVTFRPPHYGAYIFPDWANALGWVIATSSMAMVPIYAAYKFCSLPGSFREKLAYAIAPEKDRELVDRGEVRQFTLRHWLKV

Chain of TASK-2 (O95279 whole entry, species assumed): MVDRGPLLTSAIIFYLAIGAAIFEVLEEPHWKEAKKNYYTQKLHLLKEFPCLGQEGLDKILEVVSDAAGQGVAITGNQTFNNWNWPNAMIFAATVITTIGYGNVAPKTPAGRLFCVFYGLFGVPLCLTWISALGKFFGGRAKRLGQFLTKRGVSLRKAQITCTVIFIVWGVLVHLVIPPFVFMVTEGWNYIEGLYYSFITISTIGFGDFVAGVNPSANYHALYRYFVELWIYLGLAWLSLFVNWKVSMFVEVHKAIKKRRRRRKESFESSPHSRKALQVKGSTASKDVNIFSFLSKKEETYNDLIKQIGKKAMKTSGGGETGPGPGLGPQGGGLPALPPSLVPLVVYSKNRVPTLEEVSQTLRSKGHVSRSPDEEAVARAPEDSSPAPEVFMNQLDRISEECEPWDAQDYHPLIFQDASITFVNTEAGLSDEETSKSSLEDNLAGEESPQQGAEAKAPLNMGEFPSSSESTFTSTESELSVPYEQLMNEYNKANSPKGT
Chain of THIK-1 (Q9HB14 whole entry, species assumed): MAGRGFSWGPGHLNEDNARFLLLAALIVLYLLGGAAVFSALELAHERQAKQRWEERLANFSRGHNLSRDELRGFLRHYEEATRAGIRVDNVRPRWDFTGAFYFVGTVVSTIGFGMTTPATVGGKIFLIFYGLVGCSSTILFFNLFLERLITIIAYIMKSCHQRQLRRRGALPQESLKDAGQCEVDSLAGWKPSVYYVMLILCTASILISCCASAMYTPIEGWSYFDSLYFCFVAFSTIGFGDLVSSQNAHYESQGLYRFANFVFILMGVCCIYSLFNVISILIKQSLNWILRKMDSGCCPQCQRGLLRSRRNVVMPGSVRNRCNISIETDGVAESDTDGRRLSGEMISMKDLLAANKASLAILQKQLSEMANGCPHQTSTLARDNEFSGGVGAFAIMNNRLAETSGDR
Chain of TASK-1 (O14649 whole entry, species assumed): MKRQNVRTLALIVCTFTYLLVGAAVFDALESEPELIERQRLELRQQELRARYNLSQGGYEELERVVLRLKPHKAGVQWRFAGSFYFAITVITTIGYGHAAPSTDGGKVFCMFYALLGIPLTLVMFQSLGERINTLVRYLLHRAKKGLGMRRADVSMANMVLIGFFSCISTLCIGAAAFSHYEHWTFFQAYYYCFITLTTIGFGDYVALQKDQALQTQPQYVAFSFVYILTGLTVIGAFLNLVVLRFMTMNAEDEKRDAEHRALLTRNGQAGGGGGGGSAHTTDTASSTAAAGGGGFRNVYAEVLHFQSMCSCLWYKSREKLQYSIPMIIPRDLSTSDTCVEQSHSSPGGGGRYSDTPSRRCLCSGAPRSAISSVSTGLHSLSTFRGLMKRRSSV

As to `CC(=O)N1CCC(n2ncc(Cl)c2C(=O)Nc2ncc(C#Cc3ccccc3)cc2C)CC1` [Compound 10, 1-(1-Acetylpiperidin-4-yl)-4-chloro-N-(3-methyl-5-(phenylethynyl)pyridin-2-yl)-1H-pyrazole-5-carboxamide], the TASK-1 inhibition result in test [1] is given as “nothing significant”. The TASK-2 inhibition entry in test [2] is on record as “nothing significant”. The THIK-1 inhibition result in test [3] is recorded as “nothing significant”. In test [4], the IC50 – broadly, the concentration needed to halve the response being measured – was found to be 1.21 µM.
